Read-outs that look alike come from different tables or passages of the source.
How the values were obtained:
[1] = system: CaCo-2 colon carcinoma; assay: Cytotoxicity against CaCo-2 cells by MTT assay; format: cell-based; settings: Homo sapiens, 0.01-40 μM
Protocol: Cytotoxity was evaluated for CaCo-2 colon carcinoma using the MTT assay with protocols appropriate for the individual test system.^11,13 CaCo-2 cells were maintained in Earle's Minimum Essential Medium (Sigma), supplemented with 10% fetal calf serum (Biosera), 2 mM L-glutamine (Sigma), 1% non-essential amino acids (Sigma), 100 IU mL^−1 penicillin and 100 μg mL^−1 streptomycin (Sigma). Exponentially growing cells were plated at 2×10^4 cells cm^−2 into 96-well plates and incubated for 24 h before the addition of drugs. Stock solutions of compounds were initially dissolved in 20% DMSO and further diluted with fresh complete medium. After 24 and 48 h of incubation at 37° C., the medium was removed and 200 μl of MTT reagent (1 mg/mL) in serum free medium was added to each well. The plates were incubated at 37° C. for 4 h. At the end of the incubation period, the medium was removed and pure DMSO (200 μl) was added to each well. The metabolized MTT product dissolved in DMSO was quantified by reading the absorbance at 560 nm on a micro plate reader (Dynex Technologies, USA). IC50 values are defined, as the drug concentrations required to reduce the absorbance by 50% of the control values. The IC50 values were calculated from the equation of the logarithmic line determined by fitting the best line (Microsoft Excel) to the curve formed from the data. The IC50 value was obtained from the equation for y=50 (50% value).

[2] = system: Leishmania infantum promastigotes; assay: Growth of luciferase-expressing promastigotes (luciferase assay); format: cell-based; settings: for IC50: Leishmania infantum; for parasite growth inhibition, promastigote: range of concentration 0.39 to 12.50 μM, FIG. 1
Protocol: Leishmania infantum (clone MHOM/MA671TMA-P263) promastigotes transfected with reporter gene that encode to the luciferase enzyme (Roy et al, 2000) were grown at 27° C. in RPMI medium (Gibco) supplemented with 10% of heat inactivated fetal bovine serum (FBS-Gibco), 2 mM L-glutamine (Gibco), 20 mM Hepes (Gibco), 100 U/ml penicillin (Gibco) and 100 μg/ml streptomycin (Gibco). The parasites (10^6/ml) in the logarithmic phase (2 days of culture) were incubated with a serial range of concentrations of each drug for 3 days at 27° C. and the growth of parasites was determined by using the luciferase activity using luciferin as subtract.
FIG. 1. […] The results are representative of 5 assays made independently. […] The growth curves represented indicate the percentage growth related to the control for each concentration after luciferase activity determination. Each point represents a mean of 3 assays±STD.
(§1) Cytotoxicity determined by luciferase assay. The results were obtained after treatment of different parasite forms with a range of different drug concentrations 0.30 to 100 μM after 72 h of incubation. The results were representative of medium±SD at least 5 assays.

[3] = system: axenic amastigote of Leishmania infantum; assay: Growth of luciferase-expressing axenic amastigotes (luciferase assay); format: cell-based; settings: for parasite growth inhibition, axenic amastigote: FIG. 1; for IC50: Leishmania infantum, axenic amastigotes, 72 h of incubation, 37° C.
Protocol: (§2) The axenic amastigote of Leishmania infantum (clone MHOM/MA671TMA-P263) transfected with reporter gene that encode to the luciferase enzyme (Roy et al, 2000) were grown at 37° C. with 5% CO2 in a cell-free medium called MAA (medium for axenically grown amastigote). The medium MAA/20, consisted of modified medium 199 (Hanks' balanced salts) supplemented with 0.5% soya trypto-casein, 15 mM D-glucose, 5 mM L-glutamine, 4 mM NaHCO3, 0.023 mM bovine hemin, 25 mM HEPES final pH, 6.5 and 20% inactivated fetal calf serum. The parasites were incubated with different concentrations during 3 days at 37° C. with 5% CO2. The growth of the parasites was done by measuring the luciferase activity using luciferin as a substract. The intracellular amastigotes of L. infantum were cultured in a macrophage differentiated human leukemia monocyte cell line (THP-1 cells). The THP-1 cells were differentiated during 2 days with 20 ng/ml of PMA in RPMI-1640 medium supplemented with 10% FCS, 2 mM glutamine, 100 IU of penicillin/ml and 100 μg/ml of streptomycin. The non differentiated cells were washed with prewarmed medium and the adherent cells sinfected with luciferase-expressing axenic amastigotes at a parasite/macrophage ratio of 3:1 for 4 h at 37° C. with 5% CO2. Noninternalized parasites were removed and serial dilutions of each drug were made in the RPMI medium supplemented with 10% FCS. After 3 days of drug exposure, wells containing adherent differentiated THP-1 cells were washed and luciferase activity was determined.
FIG. 1. […] The results are representative of 5 assays made independently. The promastigote and axenic amastigote were incubated with a serial range of drug concentrations 0.30 to 12.5 μM, at 27° C. and 3.125 to 100 μM at 37° C. in 5% CO2, respectively, during 3 days. The growth curves represented indicate the percentage growth related to the control for each concentration after luciferase activity determination. Each point represents a mean of 3 assays±STD.
as §1

[4] = system: intracellular amastigotes of L. infantum; assay: Intracellular amastigotes in differentiated THP-1 cells (luciferase assay); format: cell-based, Leishmania infantum; settings: for IC50: Leishmania infantum, intracellular amastigotes in THP-1 cells, 72 h of incubation, read-out: IC50(μM) Amastigote intracellular; for parasite growth inhibition, intracellular amastigote: range of concentration 0.39 to 12.50 μM
Protocol: as §2
Cytotoxicity determined by luciferase assay. […] The results were representative of medium±SD at least 5 assays.

[5] = Solubility; format: physicochemical; settings: effect of longer alkyl central chain
[6] = most solvents; previously reported (Kong et al, 2000); cited from earlier work
[7] = 24 h drug exposure, read-out: IC50 (μM) 24 h
[8] = 48 h drug exposure, read-out: IC50 (μM) 48 h
[9] = promastigote, unit inferred, read-out: IC50±SD promastigote
[10] = promastigotes, 72 h of incubation, 27° C., read-out: IC50(μM) Promastigotes

SMILES	IC50 [1, 7] [µM]	IC50 [1, 8] [µM]	IC50 [2, 9] [µM]	IC50 [2, 10] [µM]	parasite growth inhibition, promastigote [2]	parasite growth inhibition, axenic amastigote [3]	IC50 [3] [µM]	IC50 [4] [µM]	parasite growth inhibition, intracellular amastigote [4]	aqueous solubility [5]	solubility [6]
O=C1c2cccc3cccc(c23)C(=O)N1CCCNCCCCCCNCCCN1C(=O)c2cccc3cccc(c23)C1=O [BNIPDahex, Bisnaphthalimidopropyldiaminohexane]	0.65	2	–	–	–	–	–	–	–	–	–
O=C1c2cccc3cccc(c23)C(=O)N1CCCNCCCCCCCCCNCCCN1C(=O)c2cccc3cccc(c23)C1=O [BNIPDanon, Bisnaphthalimidopropyldiaminononane]	3.6	0.67	2.09 ± 0.54	2.09 ± 0.54	dose dependent inhibition of parasite growth	dose dependent inhibition of parasite growth	17.4 ± 0.97	6.03 ± 0.67	dose dependent inhibition of parasite growth	helps aqueous solubility	–
O=C1c2cccc3cccc(c23)C(=O)N1CCCNCCCCCCCCNCCCN1C(=O)c2cccc3cccc(c23)C1=O [BNIPDaoct, Bisnaphthalimidopropyldiaminooctane]	6.2	3.2	≤ 0.39	≤ 0.39	dose dependent inhibition of parasite growth	didn't inhibited the parasite growth up to 50 μM	≥ 50	2.43 ± 0.19	dose dependent inhibition of parasite growth	helps aqueous solubility	–
O=C1c2cccc3cccc(c23)C(=O)N1CCCNCCCCCCCCCCCCNCCCN1C(=O)c2cccc3cccc(c23)C1=O [BNIPDadod, Bisnaphthalimidopropyldiaminododecane]	4.5	2.7	–	–	–	–	–	–	–	–	–
O=C1c2cccc3cccc(c23)C(=O)N1CCCNCCCNCCCNCCCN1C(=O)c2cccc3cccc(c23)C1=O [BNIPDpta, Bisnaphthalimidopropyldipropiltriamine]	5	3.2	1.09 ± 0.12	1.09 ± 0.12	dose dependent inhibition of parasite growth	dose dependent inhibition of parasite growth	5.24 ± 0.93	4.22 ± 1.07	dose dependent inhibition of parasite growth	–	–
O=C1c2cccc3cccc(c23)C(=O)N1CCCNCCCCCCCNCCCN1C(=O)c2cccc3cccc(c23)C1=O [BNIPDahep, Bisnaphthalimidopropyldiaminoheptane]	3.2	0.94	–	–	–	–	–	–	–	–	–
O=C1c2cccc3cccc(c23)C(=O)N1CCCNCCNCCNCCCN1C(=O)c2cccc3cccc(c23)C1=O [BNIPDeta, Bisnaphthalimidopropyldietiltriamine]	21.7	22.3	0.96 ± 0.17	0.96 ± 0.17	dose dependent inhibition of parasite growth	dose dependent inhibition of parasite growth	6.97 ± 0.2	9.52 ± 0.56	dose dependent inhibition of parasite growth	–	–
O=C1c2cccc3cccc(c23)C(=O)N1CCCNCCCCNCCCNCCCN1C(=O)c2cccc3cccc(c23)C1=O [BNIPSpd, Bisnaphthalimidopropylespermidine]	0.15	0.47	1.86 ± 0.82	1.86 ± 0.82	dose dependent inhibition of parasite growth	dose dependent inhibition of parasite growth	9.61 ± 1.84	8.92 ± 1.07	dose dependent inhibition of parasite growth	–	–
O=C1c2cccc3cccc(c23)C(=O)N1CCCNCCCCCNCCCN1C(=O)c2cccc3cccc(c23)C1=O [BNIPDapen, Bisnaphthalimidopropyldiaminopentane]	11	6.5	–	–	–	–	–	–	–	–	–
O=C1c2cccc3cccc(c23)C(=O)N1CCCNCCCCNCCCN1C(=O)c2cccc3cccc(c23)C1=O [BNIPPut, Bisnaphthalimidopropylputrescine]	–	–	0.4 ± 0.15	0.4 ± 0.15	dose dependent inhibition of parasite growth	dose dependent inhibition of parasite growth	5.49 ± 0.67	4.53 ± 0.54	dose dependent inhibition of parasite growth	–	not soluble in most solvents
O=C1c2cccc3cccc(c23)C(=O)N1CCCNCCCCCCCCCCNCCCN1C(=O)c2cccc3cccc(c23)C1=O [BNIPDadec, Bisnaphthalimidopropyldiaminodecane]	0.77	0.36	–	–	–	–	–	–	–	helps aqueous solubility	–

Reference: patent US8350036B2, “Bisnaphthalimidopropyl derivative compounds with anti-parasite and anti-cancer activity” (Universidade Do Porto, priority 2006, dated 2013)
